Data reported in the kinase profiling compilation of Christmann-Franck et al. (2016).

Experiments:
Experiment in all cases: radiometric filter-binding kinase assay, Kinase HotSpot
Conditions in all cases: compound 0.5 µM; ATP 10 µM
IGF1R (human) = IGF1R (human) (UniProt P08069)
STK33 (human) = STK33 (human) (UniProt Q9BYT3)
FGFR2 (human) = FGFR2 (human) (UniProt P21802)
NTRK2 (human) = NTRK2 (human) (UniProt Q16620)
TBK1 (human) = TBK1 (human) (UniProt Q9UHD2)
GRK5 (human) = GRK5 (human) (UniProt P34947)
BRSK2 (human) = BRSK2 (human) (UniProt Q8IWQ3)
CSNK1G2 (human) = CSNK1G2 (human) (UniProt P78368)
RPS6KA5 KD2 (human) = RPS6KA5 KD2 (human) (UniProt O75582)
SYK (human) = SYK (human) (UniProt P43405)
SRPK3 (human) = SRPK3 (human) (UniProt Q9UPE1)
ADRBK1 (human) = ADRBK1 (human) (UniProt P25098)
Chain of ADRBK1 (human) (P25098 whole entry, looked up): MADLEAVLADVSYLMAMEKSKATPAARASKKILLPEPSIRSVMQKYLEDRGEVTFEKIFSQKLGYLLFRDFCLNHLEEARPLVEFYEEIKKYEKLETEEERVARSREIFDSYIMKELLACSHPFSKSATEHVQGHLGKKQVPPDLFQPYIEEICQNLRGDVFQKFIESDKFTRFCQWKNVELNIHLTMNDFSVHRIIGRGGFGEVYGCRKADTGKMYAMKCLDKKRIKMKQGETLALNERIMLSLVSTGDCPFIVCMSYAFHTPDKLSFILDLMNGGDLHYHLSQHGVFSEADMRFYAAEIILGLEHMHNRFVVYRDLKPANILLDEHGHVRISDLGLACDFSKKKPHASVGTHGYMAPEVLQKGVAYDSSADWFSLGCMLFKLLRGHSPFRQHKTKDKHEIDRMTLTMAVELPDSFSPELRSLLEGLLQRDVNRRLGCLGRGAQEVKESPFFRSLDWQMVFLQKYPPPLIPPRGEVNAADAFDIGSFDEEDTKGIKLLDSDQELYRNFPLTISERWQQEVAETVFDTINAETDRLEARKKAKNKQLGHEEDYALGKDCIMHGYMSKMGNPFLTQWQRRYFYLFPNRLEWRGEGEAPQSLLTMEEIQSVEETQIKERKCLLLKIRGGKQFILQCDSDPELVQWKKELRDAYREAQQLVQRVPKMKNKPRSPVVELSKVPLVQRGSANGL

PRKX (human) = PRKX (human) (UniProt P51817)
MAP3K14 (human) = MAP3K14 (human) (UniProt Q99558)
[1] = system: PRKCQ (human), Q04759 [P330L]
PLK1 (human) = PLK1 (human) (UniProt P53350)
CDK1 CCNA2 (human) = CDK1 CCNA2 (human) (UniProt P06493+P20248)
Chain of CDK1 CCNA2 (human) (P06493 whole entry, looked up): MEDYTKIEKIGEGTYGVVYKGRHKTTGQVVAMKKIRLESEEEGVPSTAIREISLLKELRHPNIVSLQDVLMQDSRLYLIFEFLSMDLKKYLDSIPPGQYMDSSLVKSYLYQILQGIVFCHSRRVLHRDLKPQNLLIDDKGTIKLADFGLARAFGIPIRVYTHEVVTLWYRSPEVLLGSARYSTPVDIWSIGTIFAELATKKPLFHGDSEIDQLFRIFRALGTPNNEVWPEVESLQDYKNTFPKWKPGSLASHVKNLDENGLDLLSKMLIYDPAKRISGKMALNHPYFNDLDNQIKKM
Chain of CDK1 CCNA2 (human) (P20248 whole entry, looked up): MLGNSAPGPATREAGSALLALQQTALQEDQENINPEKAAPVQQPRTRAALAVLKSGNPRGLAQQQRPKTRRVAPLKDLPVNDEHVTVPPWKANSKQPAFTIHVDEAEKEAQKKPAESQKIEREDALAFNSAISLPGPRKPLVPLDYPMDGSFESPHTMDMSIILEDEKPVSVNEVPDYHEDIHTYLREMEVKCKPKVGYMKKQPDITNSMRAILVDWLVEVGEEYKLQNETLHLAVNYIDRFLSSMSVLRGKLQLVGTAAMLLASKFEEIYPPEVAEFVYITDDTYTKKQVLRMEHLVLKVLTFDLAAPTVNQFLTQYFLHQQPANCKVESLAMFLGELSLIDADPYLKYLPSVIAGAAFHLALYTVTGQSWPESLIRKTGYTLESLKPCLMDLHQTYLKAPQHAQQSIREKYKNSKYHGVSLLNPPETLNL

PRKCI (human) = PRKCI (human) (UniProt P41743)
CDK4 CCND3 (human) = CDK4 CCND3 (human) (UniProt P30281+P11802)
CAMK1 (human) = CAMK1 (human) (UniProt Q14012)
TAOK1 (human) = TAOK1 (human) (UniProt Q7L7X3)
CSNK1G3 (human) = CSNK1G3 (human) (UniProt Q9Y6M4)
CDC42BPA (human) = CDC42BPA (human) (UniProt Q5VT25)
PAK3 (human) = PAK3 (human) (UniProt O75914)
PLK3 (human) = PLK3 (human) (UniProt Q9H4B4)
PKN1 (human) = PKN1 (human) (UniProt Q16512)
Chain of PKN1 (human) (Q16512 whole entry, looked up): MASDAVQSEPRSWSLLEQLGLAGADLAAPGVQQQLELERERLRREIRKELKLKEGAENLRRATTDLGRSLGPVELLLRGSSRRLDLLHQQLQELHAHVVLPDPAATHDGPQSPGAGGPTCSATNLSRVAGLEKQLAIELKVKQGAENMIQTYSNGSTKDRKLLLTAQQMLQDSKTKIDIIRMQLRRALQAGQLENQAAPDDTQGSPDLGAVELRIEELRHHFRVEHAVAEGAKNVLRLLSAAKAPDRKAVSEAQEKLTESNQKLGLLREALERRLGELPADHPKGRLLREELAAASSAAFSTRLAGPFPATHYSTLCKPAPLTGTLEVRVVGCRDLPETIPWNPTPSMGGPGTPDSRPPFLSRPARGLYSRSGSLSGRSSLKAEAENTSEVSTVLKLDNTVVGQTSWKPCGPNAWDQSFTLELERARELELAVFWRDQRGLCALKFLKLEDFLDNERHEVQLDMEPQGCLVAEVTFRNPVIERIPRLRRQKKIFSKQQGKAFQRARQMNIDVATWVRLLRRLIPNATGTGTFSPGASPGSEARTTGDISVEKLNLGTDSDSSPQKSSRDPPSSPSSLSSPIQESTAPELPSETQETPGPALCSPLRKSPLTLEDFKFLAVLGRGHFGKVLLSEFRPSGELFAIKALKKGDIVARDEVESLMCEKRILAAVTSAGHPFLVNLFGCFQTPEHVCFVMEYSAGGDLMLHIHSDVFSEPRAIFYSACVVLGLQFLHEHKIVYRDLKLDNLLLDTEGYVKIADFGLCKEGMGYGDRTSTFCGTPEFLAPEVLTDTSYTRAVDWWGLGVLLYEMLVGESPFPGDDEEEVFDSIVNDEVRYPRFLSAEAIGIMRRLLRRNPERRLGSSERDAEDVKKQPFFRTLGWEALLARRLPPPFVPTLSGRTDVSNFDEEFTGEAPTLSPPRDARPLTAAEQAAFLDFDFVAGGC

TYRO3 (human) = TYRO3 (human) (UniProt Q06418)
INSR (human) = INSR (human) (UniProt P06213)
BTK (human) = BTK (human) (UniProt Q06187)
SLK (human) = SLK (human) (UniProt Q9H2G2)
HIPK3 (human) = HIPK3 (human) (UniProt Q9H422)
TGFBR2 (human) = TGFBR2 (human) (UniProt P37173)
MATK (human) = MATK (human) (UniProt P42679)
CAMK1D (human) = CAMK1D (human) (UniProt Q8IU85)
Chain of CAMK1D (human) (Q8IU85 whole entry, looked up): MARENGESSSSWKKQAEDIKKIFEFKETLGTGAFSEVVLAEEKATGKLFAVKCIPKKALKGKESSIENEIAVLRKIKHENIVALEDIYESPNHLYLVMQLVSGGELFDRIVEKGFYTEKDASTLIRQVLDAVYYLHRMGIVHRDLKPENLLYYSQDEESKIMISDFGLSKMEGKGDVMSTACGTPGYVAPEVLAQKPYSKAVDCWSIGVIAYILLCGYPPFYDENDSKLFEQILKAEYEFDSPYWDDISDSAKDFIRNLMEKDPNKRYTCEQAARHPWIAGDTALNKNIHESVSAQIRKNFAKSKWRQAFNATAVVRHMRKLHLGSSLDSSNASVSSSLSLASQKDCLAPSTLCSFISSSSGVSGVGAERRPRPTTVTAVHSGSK

CDK1 CCNB1 (human) = CDK1 CCNB1 (human) (UniProt P06493+P14635)
Chain of CDK1 CCNB1 (human) (P06493 whole entry, looked up): as the sequence (P06493 whole entry, looked up) above
Chain of CDK1 CCNB1 (human) (P14635 whole entry, looked up): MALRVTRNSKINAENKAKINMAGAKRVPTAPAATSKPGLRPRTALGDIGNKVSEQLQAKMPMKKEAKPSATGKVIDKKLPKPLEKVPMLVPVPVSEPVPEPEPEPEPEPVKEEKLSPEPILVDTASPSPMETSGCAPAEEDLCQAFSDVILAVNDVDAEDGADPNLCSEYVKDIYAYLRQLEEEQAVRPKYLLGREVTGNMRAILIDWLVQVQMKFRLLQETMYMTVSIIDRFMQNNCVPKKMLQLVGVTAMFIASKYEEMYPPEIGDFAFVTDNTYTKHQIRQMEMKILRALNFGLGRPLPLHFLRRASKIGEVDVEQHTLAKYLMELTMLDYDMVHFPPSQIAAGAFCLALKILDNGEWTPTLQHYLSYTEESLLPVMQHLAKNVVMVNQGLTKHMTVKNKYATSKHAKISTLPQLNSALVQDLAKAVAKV

CDK9 CCNT1 (human) = CDK9 CCNT1 (human) (UniProt P50750+O60563)
EPHA5 (human) = EPHA5 (human) (UniProt P54756)
CDK6 CCND3 (human) = CDK6 CCND3 (human) (UniProt P30281+Q00534)
SIK2 (human) = SIK2 (human) (UniProt Q9H0K1)
HCK (human) = HCK (human) (UniProt P08631)
STK17A (human) = STK17A (human) (UniProt Q9UEE5)

Chain of IGF1R (human) (P08069 whole entry, looked up): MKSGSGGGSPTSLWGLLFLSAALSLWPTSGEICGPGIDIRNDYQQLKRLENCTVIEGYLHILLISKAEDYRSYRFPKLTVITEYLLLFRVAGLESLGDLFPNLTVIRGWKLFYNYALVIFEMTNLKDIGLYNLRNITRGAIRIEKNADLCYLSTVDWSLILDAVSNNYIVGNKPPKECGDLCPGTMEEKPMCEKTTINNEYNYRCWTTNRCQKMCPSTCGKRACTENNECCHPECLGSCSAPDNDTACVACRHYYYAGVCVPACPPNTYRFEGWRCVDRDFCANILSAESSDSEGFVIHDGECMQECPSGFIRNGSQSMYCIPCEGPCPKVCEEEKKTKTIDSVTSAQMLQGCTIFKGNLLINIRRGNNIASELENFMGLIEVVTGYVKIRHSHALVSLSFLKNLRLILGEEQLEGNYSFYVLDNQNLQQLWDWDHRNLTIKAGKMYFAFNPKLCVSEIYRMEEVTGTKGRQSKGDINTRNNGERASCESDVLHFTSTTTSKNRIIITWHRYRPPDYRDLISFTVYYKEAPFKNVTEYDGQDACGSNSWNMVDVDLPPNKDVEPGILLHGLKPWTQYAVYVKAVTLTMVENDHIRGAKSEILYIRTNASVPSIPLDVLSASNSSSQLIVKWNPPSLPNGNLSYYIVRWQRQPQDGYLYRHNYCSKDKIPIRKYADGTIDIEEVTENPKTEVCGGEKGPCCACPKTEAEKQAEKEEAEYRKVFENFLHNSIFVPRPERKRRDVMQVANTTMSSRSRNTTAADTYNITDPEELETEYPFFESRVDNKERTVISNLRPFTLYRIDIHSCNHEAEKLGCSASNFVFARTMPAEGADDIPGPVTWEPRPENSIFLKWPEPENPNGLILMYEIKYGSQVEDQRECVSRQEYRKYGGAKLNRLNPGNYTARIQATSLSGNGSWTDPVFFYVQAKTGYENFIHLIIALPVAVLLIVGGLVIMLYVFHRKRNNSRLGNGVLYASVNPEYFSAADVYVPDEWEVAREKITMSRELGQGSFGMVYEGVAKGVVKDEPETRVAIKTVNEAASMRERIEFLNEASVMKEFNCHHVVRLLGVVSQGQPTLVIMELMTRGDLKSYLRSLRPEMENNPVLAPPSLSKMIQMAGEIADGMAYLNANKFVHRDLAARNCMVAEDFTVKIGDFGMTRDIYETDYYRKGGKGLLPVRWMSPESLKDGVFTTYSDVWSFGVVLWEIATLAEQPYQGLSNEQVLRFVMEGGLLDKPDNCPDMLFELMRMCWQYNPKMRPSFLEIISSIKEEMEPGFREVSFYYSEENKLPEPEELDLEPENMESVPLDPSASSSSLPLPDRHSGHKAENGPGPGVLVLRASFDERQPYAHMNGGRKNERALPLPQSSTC

## COc1cc2ncnc(Nc3ccc(Oc4ccccc4)cc3)c2cc1OC
IGF1R (human)
  residual activity: 102%
STK33 (human)
  residual activity: 96.3%
FGFR2 (human)
  residual activity: 93.7%
NTRK2 (human)
  residual activity: 103%
TBK1 (human)
  residual activity: 93.7%
GRK5 (human)
  residual activity: 97.4%
BRSK2 (human)
  residual activity: 101%
CSNK1G2 (human)
  residual activity: 99.9%
RPS6KA5 KD2 (human)
  residual activity: 106%
SYK (human)
  residual activity: 98.6%
SRPK3 (human)
  residual activity: 94.8%
ADRBK1 (human)
  residual activity: 101%
PRKX (human)
  residual activity: 95.2%
MAP3K14 (human)
  residual activity: 93%
[1]
  residual activity: 124%
PLK1 (human)
  residual activity: 96.4%
CDK1 CCNA2 (human)
  residual activity: 92.2%
PRKCI (human)
  residual activity: 108%
CDK4 CCND3 (human)
  residual activity: 98.4%
CAMK1 (human)
  residual activity: 105%
TAOK1 (human)
  residual activity: 105%
CSNK1G3 (human)
  residual activity: 99.4%
CDC42BPA (human)
  residual activity: 95.4%
PAK3 (human)
  residual activity: 98.1%
PLK3 (human)
  residual activity: 97.1%
PKN1 (human)
  residual activity: 97.3%
TYRO3 (human)
  residual activity: 83.4%
INSR (human)
  residual activity: 88.8%
BTK (human)
  residual activity: 38.8%
SLK (human)
  residual activity: 88.7%
HIPK3 (human)
  residual activity: 103%
TGFBR2 (human)
  residual activity: 137%
MATK (human)
  residual activity: 94.3%
CAMK1D (human)
  residual activity: 99.7%
CDK1 CCNB1 (human)
  residual activity: 81.2%
CDK9 CCNT1 (human)
  residual activity: 86.7%
EPHA5 (human)
  residual activity: 85.3%
CDK6 CCND3 (human)
  residual activity: 108%
SIK2 (human)
  residual activity: 97.7%
HCK (human)
  residual activity: 13.5%
STK17A (human)
  residual activity: 96.3%

## COc1ccc2c(c1)c(C1=C(c3c[nH]c4ccccc34)C(=O)NC1=O)cn2CCCN(C)C
IGF1R (human)
  residual activity: 115%
STK33 (human)
  residual activity: 56.2%
FGFR2 (human)
  residual activity: 90.7%
NTRK2 (human)
  residual activity: 88.1%
TBK1 (human)
  residual activity: 90.7%
GRK5 (human)
  residual activity: 114%
BRSK2 (human)
  residual activity: 61.3%
CSNK1G2 (human)
  residual activity: 82.2%
RPS6KA5 KD2 (human)
  residual activity: 61.3%
SYK (human)
  residual activity: 68.5%
SRPK3 (human)
  residual activity: 89.5%
ADRBK1 (human)
  residual activity: 99%
PRKX (human)
  residual activity: 102%
MAP3K14 (human)
  residual activity: 79.2%
[1]
  residual activity: 4.5%
PLK1 (human)
  residual activity: 104%
CDK1 CCNA2 (human)
  residual activity: 95.7%
PRKCI (human)
  residual activity: 67.6%
CDK4 CCND3 (human)
  residual activity: 95.5%
CAMK1 (human)
  residual activity: 90.2%
TAOK1 (human)
  residual activity: 99.5%
CSNK1G3 (human)
  residual activity: 77.8%
CDC42BPA (human)
  residual activity: 89.2%
PAK3 (human)
  residual activity: 105%
PLK3 (human)
  residual activity: 93%
PKN1 (human)
  residual activity: 34.7%
TYRO3 (human)
  residual activity: 90.7%
INSR (human)
  residual activity: 94.1%
BTK (human)
  residual activity: 90.2%
SLK (human)
  residual activity: 69.4%
HIPK3 (human)
  residual activity: 74.1%
TGFBR2 (human)
  residual activity: 120%
MATK (human)
  residual activity: 99.3%
CAMK1D (human)
  residual activity: 73.3%
CDK1 CCNB1 (human)
  residual activity: 94.4%
CDK9 CCNT1 (human)
  residual activity: 69.7%
EPHA5 (human)
  residual activity: 87.2%
CDK6 CCND3 (human)
  residual activity: 85%
SIK2 (human)
  residual activity: 103%
HCK (human)
  residual activity: 111%
STK17A (human)
  residual activity: 84%

## Ic1cccc(CSc2nnc(-c3ccncc3)o2)c1
IGF1R (human)
  residual activity: 99.1%
STK33 (human)
  residual activity: 111%
FGFR2 (human)
  residual activity: 101%
NTRK2 (human)
  residual activity: 91.4%
TBK1 (human)
  residual activity: 103%
GRK5 (human)
  residual activity: 106%
BRSK2 (human)
  residual activity: 99.3%
CSNK1G2 (human)
  residual activity: 99.2%
RPS6KA5 KD2 (human)
  residual activity: 97.2%
SYK (human)
  residual activity: 92.2%
SRPK3 (human)
  residual activity: 101%
ADRBK1 (human)
  residual activity: 99.9%
PRKX (human)
  residual activity: 78.2%
MAP3K14 (human)
  residual activity: 88.3%
[1]
  residual activity: 120%
PLK1 (human)
  residual activity: 98.6%
CDK1 CCNA2 (human)
  residual activity: 99.8%
PRKCI (human)
  residual activity: 96.4%
CDK4 CCND3 (human)
  residual activity: 97.5%
CAMK1 (human)
  residual activity: 102%
TAOK1 (human)
  residual activity: 101%
CSNK1G3 (human)
  residual activity: 75.9%
CDC42BPA (human)
  residual activity: 98.4%
PAK3 (human)
  residual activity: 92.9%
PLK3 (human)
  residual activity: 96.1%
PKN1 (human)
  residual activity: 98.6%
TYRO3 (human)
  residual activity: 103%
INSR (human)
  residual activity: 83.5%
BTK (human)
  residual activity: 95.6%
SLK (human)
  residual activity: 98.6%
HIPK3 (human)
  residual activity: 99.1%
TGFBR2 (human)
  residual activity: 121%
MATK (human)
  residual activity: 94.3%
CAMK1D (human)
  residual activity: 101%
CDK1 CCNB1 (human)
  residual activity: 92%
CDK9 CCNT1 (human)
  residual activity: 109%
EPHA5 (human)
  residual activity: 100%
CDK6 CCND3 (human)
  residual activity: 102%
SIK2 (human)
  residual activity: 100%
HCK (human)
  residual activity: 104%
STK17A (human)
  residual activity: 95.8%
